Reference: PubChem BioAssay (NCI)
Where “and” joins values, the source holds several entries; their conditions need not be identical. Equal values may be shown once.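 How tested: cells in 96-well plates exposed to compound for 48 hours at five concentrations. GI50: concentration for 50% inhibition of growth. TGI: total growth inhibition.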

Experiments:
Assay in all cases: NCI anticancer screen, dose series, 48 h
[1] = test system: ACHN renal
[2] = test system: MALME-3M melanoma
[3] = test system: RPMI-8226 leukemia
[4] = test system: SK-MEL-2 melanoma
[5] = test system: IGROV1 ovarian
[6] = test system: UACC-257 melanoma
[7] = test system: HCC-2998 colon
[8] = test system: SNB-75 CNS
[9] = test system: CAKI-1 renal
[10] = test system: UO-31 renal

Compound | GI50 [1] | TGI [1] | GI50 [2] | TGI [2] | GI50 [3] | TGI [3] | GI50 [4] | TGI [4] | GI50 [5] | TGI [5] | GI50 [6] | TGI [6] | GI50 [7] | TGI [7] | GI50 [8] | TGI [8] | GI50 [9] | TGI [9] | GI50 [10] | TGI [10]
COc1ccc(-c2[nH]ncc2-c2cc3c(c(OC)c2)OCC(=O)N3)cc1 | 0.85 µM | > 100 µM | 2.75 µM | 99.1 µM | 0.796 µM | 18.9 µM | 0.564 µM | 81.6 µM | 0.674 µM | > 100 µM | 3.23 µM | > 72.4 µM | 1.14 µM | 27 µM | 0.196 µM | 0.797 µM | 0.556 µM | > 63.3 µM | 1.44 µM | 53.8 µM
O=C(/C=C/c1ccc(B(O)O)cc1)/C=C/c1ccc(B(O)O)cc1 | 3.66 µM | 13.8 µM | 6.3 µM | 20.9 µM | 2.51 µM | 8.21 µM | 16 µM | 40.9 µM | 3.46 µM | 13.3 µM | 3.4 µM | 13.3 µM | 1.95 µM | 3.61 µM | 3.48 µM | 14.9 µM | 6.22 µM | 19.2 µM | 1.91 µM | 4.73 µM
CCCN(CCC)CCCNCc1cc(I)cc(C)c1O | 17.1 µM | 34.8 µM | 16.5 µM | 31.5 µM | 10.8 µM | 27.2 µM | 20.1 µM | 36.3 µM | 15.6 µM | 29.6 µM | 11.5 µM | 27.7 µM | 20.9 µM | 36.1 µM | 14.6 µM | 29 µM | 14.6 µM | 30.6 µM | 17.2 µM | 53.1 µM
Cc1ccc(C(=O)N(CCCN)[C@@H](c2nc3cc(Cl)ccc3c(=O)n2Cc2ccccc2)C(C)C)cc1 | 0.798 µM | 2.38 µM and 2.15 µM | 0.0303 µM | 2.39 µM | < 0.01 µM | 1.72 µM | < 0.01 µM |  | < 0.0336 µM | 2.09 µM |  | 1.86 µM and 2.79 µM | < 0.01 µM | 1.23 µM and 0.912 µM | < 0.01 µM | 1.56 µM and 1.37 µM |  | 2.33 µM and 1.94 µM | 1.12 µM and 1.02 µM | 2.58 µM and 2.27 µM
CCCCCCCCCCCOC(=S)NC(C)C |  | 35.9 µM |  | 49.5 µM |  | 33.2 µM |  | 40 µM |  | 49.9 µM |  | 42.6 µM |  | 31.1 µM |  | 62.8 µM |  | 39.9 µM |  | 32.2 µM
CC(C)[C@](O)(c1ccc2cc(OC(F)F)c(OC(F)F)cc2c1)c1cn[nH]n1 | 25.7 µM and 19.3 µM | 93.3 µM and 54 µM | 18.4 µM and 21 µM | 42.6 µM and 44.7 µM | 24.9 µM and 18.2 µM | 68.4 µM and 53 µM | 18.7 µM and 17.1 µM | 36.6 µM and 35 µM | 24.6 µM and 17.8 µM | 70.7 µM and 44.5 µM | 21.5 µM and 21.8 µM | 47.7 µM and 46.1 µM | 18.2 µM and 18.4 µM | 36.3 µM and 34.5 µM | 11.8 µM and 9.7 µM | 36.1 µM and 27.1 µM | 13 µM and 10.2 µM | 37 µM and 34.5 µM | 12.8 µM and 12.1 µM | 29.1 µM and 30.1 µM
COc1ccc(/C(=N/NC(N)=O)C2(O)C(=O)Nc3ccc([N+](=O)[O-])cc32)cc1 (configuration not stated) |  | 30.6 µM |  | > 10 µM |  | 74.1 µM |  | 40.2 µM |  | 94.7 µM |  | 39.4 µM |  | > 100 µM |  | 69.8 µM |  | 57.7 µM |  | 34.8 µM
Cc1ccc(NCCCN2CCN(CCCNc3ccc(C)c4sc5ccccc5c(=O)c34)CC2)c2c(=O)c3ccccc3sc12 |  | > 100 µM |  | > 100 µM |  | > 100 µM |  | 93.8 µM |  | > 100 µM |  | > 100 µM |  | > 100 µM |  | 57.1 µM |  | > 100 µM |  | > 100 µM
N#C/C(=C\c1ccccc1O)C(N)=O |  | > 100 µM |  | > 100 µM |  | > 100 µM |  | > 100 µM |  | > 100 µM |  | > 100 µM |  | > 100 µM |  | 69.7 µM |  | > 100 µM |  | > 100 µM
Cc1c2cnccc2c(C)c2c1c1cc(C3OCCCO3)ccc1n2C | 0.318 µM | 2.04 µM | 0.29 µM | 1.12 µM | 0.282 µM | 1.28 µM | 0.314 µM | 1.22 µM | 0.337 µM | 2.37 µM | 0.343 µM | 1.8 µM | 0.659 µM | 2.94 µM | 0.257 µM | 1.37 µM | 0.314 µM | 3.45 µM | 0.278 µM | 2.27 µM
CCOc1ccccc1NC(=O)CCC(=O)OC |  | > 100 µM |  | > 100 µM |  | > 71.3 µM |  | > 100 µM |  | > 100 µM |  | > 100 µM |  | > 100 µM |  | > 100 µM |  | > 100 µM |  | > 100 µM
CC(=O)C1=C(O)C=C2Oc3c(C(=O)/C=C/c4cc(C(F)(F)F)cc(C(F)(F)F)c4)c(O)c(C)c(O)c3[C@]2(C)C1=O | 0.552 µM | 2.26 µM | 0.513 µM | 2.42 µM | 0.442 µM | 1.28 µM | 0.448 µM | 1.27 µM | 0.671 µM | 8.83 µM | 0.728 µM | 4.54 µM | 1.53 µM | 3.63 µM | 2.1 µM | 4.91 µM | 0.531 µM | 4.83 µM | 0.438 µM | 2.05 µM
C[n+]1c(/C=C\C=C\N2CCCCC2)sc2ccccc21 | 4.07 µM | > 53.4 µM | 0.311 µM | 2.18 µM | 0.0691 µM | 1.09 µM | 0.634 µM | 14.3 µM | 0.84 µM | 33.8 µM | 0.278 µM | 2.18 µM | 0.451 µM | 14.1 µM | 3.93 µM | 17 µM | 4.8 µM | 28.9 µM | 13.5 µM | > 71.3 µM
CC1=CCC[C@@]2(C)C(CC[C@@H]2C(C)/C=C/C(C)C)c2ccc(cc2C(=O)O)C[C@@H](O)CC1 (some centres not stated) |  | 18.7 µM |  | 37.7 µM |  | 19.7 µM |  | 37.5 µM |  | 27.9 µM |  | 30.5 µM |  | 23.5 µM |  | 27.4 µM |  | 32.9 µM |  | 29.2 µM
Cc1ccccc1NC(=S)Nc1ccccn1 | > 100 µM | > 100 µM | > 100 µM | > 100 µM | 62.7 µM | > 100 µM | > 100 µM | > 100 µM | > 100 µM | > 100 µM | > 100 µM | > 100 µM | > 100 µM | > 100 µM | > 100 µM | > 100 µM | > 100 µM | > 100 µM | > 100 µM | > 100 µM
